# Columns and labels:
# M. furfur (MTCC 1374) = assay: Lipid assimilation in vitro assay: fatty acids/esters as nutrients for growth of M. furfur; type: cell-based, Malassezia furfur; settings: Sabouraud dextrose agar, after 6 days
# Excerpt: Malassezia species are lipophilic unipolar yeasts recognized as commensals of skin that may be pathogenic under certain conditions (Jindo et al 2004: Indian Journal of Medical Microbiology (22: 179). To compare lipid requirements of the fungus most closely associated with dandruff/seborrheic dermatitis, the best studied Malassezia species is M. furfur. Lipid assimilation in vitro assay was designed to investigate lipid effect on growth of M. furfur (MTCC 1374).
# Briefly, Sabouraud Dextrose containing low-melt agar was melted, cooled to 38° C. Fatty acids/esters constituents eg, propylene glycol monocaprylate (C-8), capric acid (C-10), caprylic acid (C-8), linoleic acid (C-18), oleic acid (C-18), palmitic acid (C-16), ethyl oleate (C-18), and oils containing fatty acid/esters eg, coconut oil, mustard oil etc., were added to study the growth of the fungus (Kaw Bing CHUA, et al Malaysian J Pathol (2005) 27(2): 99). After solidification, agar plates were streaked with M. furfur innoculum adjusted to appropriate cfu/ml, aseptically. Positive control with 2% olive oil and negative control without fatty substance were also maintained.
# [1] = test system: azole resistant C. albicans MTCC 227; assay: Checkerboard assay on azole resistant C. albicans MTCC 227; type: cell-based, Candida albicans; settings: for MIC: Candida albicans, MTCC227, agent alone
# Description: (§1) The synergy is measured by determining the fractional inhibitory concentration (FIC) value of the combination. This experimental set up, called checkerboard method, allows measurement of a desired effect (inhibition of fungal growth in this case) at different combinations of various concentrations of the two agents (antifungal agent and fatty acid/ester). […] No agent is added to the penultimate column on the right and the bottom row. The final column on the right is used for growth control (only inoculum in broth) and sterility control (broth alone, no inoculum). […] FIC values for both agents in a particular well were calculated in this way followed by determination of the FIC index (sum of the FICs of each drug in the concerned well). […] Agents Chemother.
# (§2) Using the checkerboard layout experimental setup described above (FIG. 1A), various medium-chain fatty acids were tested for their ability to potentiate the activity of a known antifungal agent. Concentrations above and below the MIC of each test agent were tested using serial dilution. The same procedure was expanded to test combinations of various medium-chain fatty acids C-1 to C-14 (such caprylic acid, undecylenic acid and lauric acid) and esters thereof, with antifungal agents from various classes including azoles, allylamines, benzylamines, zinc pyrithione and piroctone olamine against both susceptible and resistant Trichophyton spp. (filamentous fungus) and Candida spp. (yeast).
# (§3) Potentiation of the activity of antimycotic agents using ester derivatives of medium chain fatty acids was tested in a standard, well accepted in vitro assay system to check for synergy. This experimental set up, called checkerboard method, allows measurement of a desired effect (inhibition of fungal growth in this case) at different combinations of various concentrations of two agents. A chosen medium chain fatty acid (C-1 to C-14) or its ester derivative was tested for its ability to potentiate the activity of a known antifungal agent (various classes) using the checkerboard layout. Various concentrations above and below the MIC of each test agent were tested using serial dilution in Sabouraud dextrose broth. […] FIC values for both test agents in a particular well are calculated in this way followed by determination of the FIC index (sum of the FICs of each drug in the concerned well).
# C. albicans (ATCC-90028) = assay: Checkerboard assay on C. albicans (ATCC-90028); type: cell-based, Candida albicans
# Description: (§4) The synergy is measured by determining the fractional inhibitory concentration (FIC) value of the combination. This experimental set up, called checkerboard method, allows measurement of a desired effect (inhibition of fungal growth in this case) at different combinations of various concentrations of the two agents (antifungal agent and fatty acid/ester). […] No agent is added to the penultimate column on the right and the bottom row. The final column on the right is used for growth control (only inoculum in broth) and sterility control (broth alone, no inoculum). […] FIC value for each agent in a particular well of the checkerboard layout was calculated by dividing the agent concentration in that well by the established MIC value of the agent against the test organism (Hsieh et al., Synergy assessed by checkerboard: A critical Analysis, Diagn. Microbiol. Infect Dis. (1993) 16:343-349). FIC values for both agents in a particular well were calculated in this way followed by determination of the FIC index (sum of the FICs of each drug in the concerned well). […] Agents Chemother. (2010) 54(2): 602-609].
# as §2
# Potentiation of the activity of antimycotic agents using ester derivatives of medium chain fatty acids was tested in a standard, well accepted in vitro assay system to check for synergy. This experimental set up, called checkerboard method, allows measurement of a desired effect (inhibition of fungal growth in this case) at different combinations of various concentrations of two agents. A chosen medium chain fatty acid (C-1 to C-14) or its ester derivative was tested for its ability to potentiate the activity of a known antifungal agent (various classes) using the checkerboard layout. Various concentrations above and below the MIC of each test agent were tested using serial dilution in Sabouraud dextrose broth. […] FIC value for a drug in a particular well of the checkerboard layout is calculated by dividing the drug concentration in that well by the established MIC value of the drug against the test organism (Hsieh et al., Synergy assessed by checkerboard: A critical Analysis, Diagn. Microbiol. Infect Dis. (1993) 16:343-349). FIC values for both test agents in a particular well are calculated in this way followed by determination of the FIC index (sum of the FICs of each drug in the concerned well).
# [2] = test system: terbinafine resistant Trichophyton interdigitale (GTB-2S); assay: Checkerboard assay on terbinafine resistant Trichophyton interdigitale (GTB-2S); type: cell-based
# Description: as §1, §2, §3
# [3] = test system: Trichophyton rubrum (ATCC-28188); assay: Checkerboard assay of fatty acid/ester with antifungals on Trichophyton rubrum (ATCC 28188); type: cell-based; set-up: key to FIC index: FIC index = sum of FICs; FIC = agent conc in well / agent MIC; settings: for MIC: Trichophyton rubrum, ATCC28188, agent alone
# C. albicans = assay: Checkerboard assay of clotrimazole and oleic acid (C18) in C. albicans; type: cell-based, Candida albicans; settings: clotrimazole + oleic acid, FIGS. 1B and 1C
# Description: as §4
# [4] = Table 9, caprylic acid (C8) series
# [5] = agent's MIC in combination antifungal + caprylic acid (partner: other agent of same combination no.)
# [6] = agent's MIC in combination antifungal + glyceryl monocaprylate (partner: other agent of same combination no.)
# [7] = agent's MIC in combination antifungal + lauric acid (partner: other agent of same combination no.)
# [8] = agent's MIC in combination antifungal + propylene glycol monolaurate (partner: other agent of same combination no.)
# [9] = antifungal in combination with caprylic acid
# [10] = antifungal in combination with glyceryl monocaprylate
# [11] = antifungal in combination with lauric acid
# [12] = antifungal in combination with propylene glycol monocaprylate
# [13] = antifungal in combination with propylene glycol monolaurate
# [14] = combination antifungal + caprylic acid
# [15] = combination antifungal + glyceryl monocaprylate
# [16] = combination antifungal + lauric acid
# [17] = combination antifungal + propylene glycol monolaurate
# [18] = antifungal in combination with undecylenic acid
smiles,measurement,setting,value
CCCCCCCC(=O)O [Caprylic acid],growth of M. furfur on culture media containing the fatty acid/ester or oil,M. furfur (MTCC 1374),no growth
same,MIC,[1]; [4],250 µg/mL
same,MIC,"C. albicans (ATCC-90028); Candida albicans, ATCC90028, agent alone, Table 8",125 µg/mL
same,Combination MIC,C. albicans (ATCC-90028); agent's MIC in combination luliconazole + caprylic acid,31.25 µg/mL
same,FIC,C. albicans (ATCC-90028); combination luliconazole + caprylic acid,0.25
same,MIC,"[2]; Trichophyton interdigitale, agent alone, Table 7",15.6 µg/mL
same,Combination MIC,[2]; agent's MIC in combination terbinafine or butenafine + caprylic acid,7.812 µg/mL
same,FIC,[2]; combination terbinafine or butenafine + caprylic acid,0.5
Clc1ccccc1C(c1ccccc1)(c1ccccc1)n1ccnc1 [Clotrimazole],MIC,"[3]; Table 1, caprylic acid series",0.6 µg/mL
same,MIC,"[3]; Table 2, propylene glycol monocaprylate series",0.6 µg/mL
same,MIC,"[3]; Table 3, glyceryl monocaprylate series",0.6 µg/mL
same,MIC,"[3]; Table 5, lauric acid (C12) series",0.5 µg/mL
same,MIC,"[3]; Table 6, propylene glycol monolaurate series",0.5 µg/mL
same,Combination MIC,[3]; [5],0.075 µg/mL
same,Combination MIC,[3]; [6],0.075 µg/mL
same,Combination MIC,[3]; [7],0.125 µg/mL
same,Combination MIC,[3]; [8],0.125 µg/mL
same,FIC index,[3]; [9],0.375
same,Interaction,[3]; [9],Synergistic (Combinations that gave FIC indices less than 1 were designated “synergistic”)
same,FIC index,[3]; [10],0.625
same,Interaction,[3]; [10],Synergistic (Combinations that gave FIC indices less than 1 were designated “synergistic”)
same,FIC index,[3]; [11],0.75
same,Interaction,[3]; [11],Synergistic (Combinations that gave FIC indices less than 1 were designated “synergistic”)
same,Interaction,[3]; [12],Synergistic (Combinations that gave FIC indices less than 1 were designated “synergistic”)
same,FIC index,[3]; [13],0.5
same,Interaction,[3]; [13],Synergistic (Combinations that gave FIC indices less than 1 were designated “synergistic”)
same,FIC,[3]; [14],0.125
same,FIC,[3]; [15],0.125
same,FIC,[3]; [16],0.25
same,FIC,[3]; [17],0.25
same,MIC,[1]; [4],8 µg/mL
same,MIC,"[1]; Table 10, propylene glycol monocaprylate series",16 µg/mL
same,MIC,"[1]; Table 11, glyceryl monocaprylate series",16 µg/mL
same,MIC,"[1]; Table 12, undecylenic acid (C11) series",16 µg/mL
same,MIC,"[1]; Table 13, lauric acid (C12) series",8 µg/mL
same,MIC,"[1]; Table 14, propylene glycol monolaurate series",16 µg/mL
same,Combination MIC,[1]; [5],0.25 µg/mL
same,Combination MIC,[1]; [6],4 µg/mL
same,Combination MIC,[1]; [7],1 µg/mL
same,Combination MIC,[1]; agent's MIC in combination antifungal + propylene glycol monocaprylate (partner: other agent of same combination no.),4 µg/mL
same,Combination MIC,[1]; [8],8 µg/mL
same,Combination MIC,[1]; agent's MIC in combination antifungal + undecylenic acid (partner: other agent of same combination no.),2 µg/mL
same,FIC index,[1]; [9],0.093
same,Interaction,[1]; [9],Synergistic (Combinations that gave FIC indices less than 1 were designated “synergistic”)
same,FIC index,[1]; [10],0.5
same,Interaction,[1]; [10],Synergistic (Combinations that gave FIC indices less than 1 were designated “synergistic”)
same,FIC index,[1]; [11],0.187
same,Interaction,[1]; [11],Synergistic (Combinations that gave FIC indices less than 1 were designated “synergistic”)
same,FIC index,[1]; [12],0.312
same,Interaction,[1]; [12],Synergistic (Combinations that gave FIC indices less than 1 were designated “synergistic”)
same,FIC index,[1]; [13],0.515
same,Interaction,[1]; [13],Synergistic (Combinations that gave FIC indices less than 1 were designated “synergistic”)
same,FIC index,[1]; [18],0.187
same,Interaction,[1]; [18],Synergistic (Combinations that gave FIC indices less than 1 were designated “synergistic”)
same,FIC,[1]; [14],0.031
same,FIC,[1]; [15],0.25
same,FIC,[1]; [16],0.125
same,FIC,[1]; combination antifungal + propylene glycol monocaprylate,0.25
same,FIC,[1]; [17],0.5
same,FIC,[1]; combination antifungal + undecylenic acid,0.125
same,combination activity (interaction) with oleic acid (C18),C. albicans,antagonistic effect
CCCCCCCCCC(=O)O [capric acid],growth of M. furfur on culture media containing the fatty acid/ester or oil,M. furfur (MTCC 1374),no growth
CCCCCCCC/C=C\CCCCCCCC(=O)OCC [ethyl oleate],growth of M. furfur on culture media containing the fatty acid/ester or oil,M. furfur (MTCC 1374),confluent growth
CCCCC/C=C\C/C=C\CCCCCCCC(=O)O [linoleic acid],growth of M. furfur on culture media containing the fatty acid/ester or oil,M. furfur (MTCC 1374),confluent growth
CCCCCCCC/C=C\CCCCCCCC(=O)O [oleic acid],growth of M. furfur on culture media containing the fatty acid/ester or oil,M. furfur (MTCC 1374),confluent growth
CCCCCCCCCCCCCCCC(=O)O [palmitic acid],growth of M. furfur on culture media containing the fatty acid/ester or oil,M. furfur (MTCC 1374),confluent growth
